Experimental findings from US7226623B2, “In vitro and in vivo anti-inflammatory effects of a sesquiterpene lactone extract from chicory (Cichorium intybus L.)” (Rutgers, The State University of New Jersey, priority 2005, dated 2007) are described below.

Each structure is given as a SMILES string.

For test [1], the system named is nitric oxide production by LPS-induced macrophages. Description: Griess assay for NO production. Conditions: aspirin 10 μM, LPS 1 μg/mL, 24 hours. Type of test: cell-based, murine. The protocol:
Down-regulation of various pro-inflammatory genes, including iNOS, IL1β and TNF-α, can reduce nitric oxide production by macrophages. In order to confirm that changes in pro-inflammatory gene expression were affecting cellular function, the Griess assay was performed to indirectly measure nitric oxide production by LPS-induced macrophages by measuring nitrite. For the assay, RAW cells were plated in a 96-well plate at a minimum density of 5×10^3 cells/well and grown for 24 hours. […] After 24 hours, conditioned media (50 μl) was removed and immediately mixed with 100 μl of Griess reagent ([…], 1% naphthalene-ethylenediamine dihydrochloride in 5% H3PO4). After incubation for 15 minutes at room temperature, the samples were read at 550 nm using a microplate spectrophotometer (Molecular Devices, Sunnyvale, Calif.). Data for each treatment were normalized based on results from an MTT cell proliferation assay.

Another test concerns BALB/c mice. Description: Collagen induced arthritis (type II collagen mAbs with LPS challenge). Type of test: in vivo. Conditions: indomethacin 3 mg/kg oral. The procedure:
Groups of 5 BALB/c mice weighing 25±2 g were used for this study. A 4 mg/mouse combination of 4 monoclonal antibodies (mAbs) against type II collagen (D8, F10, DI-2G, and A2; IBL Co., Japan) was administered to mice intravenously on day 0 of the study to induce an inflammatory reaction mimicking rheumatoid arthritis. On day 3 of the study, mice were given LPS ([…]) intravenously to potentiate the inflammatory effect. One hour after LPS administration, mice were dosed orally with chicory extract (200 mg/kg), indomethacin (3 mg/kg; Sigma, St. Louis, Mo.), or vehicle control (1% carboxymethylcellulose, CMC; Sigma, St. Louis, Mo.). Mice were dosed with chicory extract or vehicle for two more consecutive days. Volumes of both hind paws were measured using a plethysmometer on days 0, 5, 7, 10, 14, and 17. The increase in paw edema at each time point was determined by comparison with paw volume measured on day 0. Inhibition of edema was calculated by comparison with vehicle control at the same time point. This study was a GLP study (#1038342) performed by MDS Pharma Services (Taiwan).

The next test deals with Wistar rats. As to the kind of experiment: Carrageenan-induced rat paw edema. The following applies: indomethacin (15 mg/kg). Type of test: in vivo. The protocol:
Groups of 5 adult male and female Wistar rats with body weights from 136 g to 170 g were used for this study. Rats were housed five animals per cage in a room kept at 24-26° C. and fed ad libitium. Before the experiment began, rat paw sizes were recorded by measuring paw volume three times on each animal using a plethysmometer (Ugo Basile, Comerio VA, Italy). The values were averaged to give a baseline paw size value. To start the experiment, animals were given a subcutaneous injection of 1% carrageenan (100 μl; Sigma, St. Louis, Mo.) in the area of the back paw to induce an acute inflammatory reaction (paw edema). One hour after carrageenan injection, rats were orally gavaged with chicory extract or vehicle control (4% apricot kernel balm). Paw size was measured at 3 hours, 5 hours, and 24 hours after injection. The increase in paw edema at each time point was determined by comparison with paw volume measured pre-injection. Inhibition of edema was calculated by comparison with vehicle control at the same time point.
For orientation: In the carrageenan paw model, swelling and tenderness develop within hours.

In the case of `CC(=O)Oc1ccccc1C(=O)O` [aspirin], in test [1], the “Griess assay % LPS control” value worked out at 69%.

As to `COc1ccc2c(c1)c(CC(=O)O)c(C)n2C(=O)c1ccc(Cl)cc1` [indomethacin], the “Mouse arthritis % inhibition of edema” value was 83% in the test with BALB/c mice (day 5); 81% with BALB/c mice (day 7); 82% with BALB/c mice (day 10); 77% in the test on BALB/c mice (day 14); 85% in the test with BALB/c mice (day 17). Besides, the entries for the “Rat Paw Edema, inhibition of edema vs vehicle control” value in the test with Wistar rats (3 h after carrageenan), in the test on Wistar rats (5 h after carrageenan) and in the test on Wistar rats (24 h after carrageenan) were 43%, 36% and 51%, respectively.
